Residue numbers refer to the chain shown, from its start. Names and notes keep the numbering of the source. Like-named read-outs stand apart in the source and are kept apart here.

The values that follow come from publication PMC11393453, “Phosphorylation of tau at a single residue inhibits binding to the E3 ubiquitin ligase, CHIP” (Nature Communications, 2024).

Assay [1] relates to CHIP. The conditions noted are these: cited from earlier work. The text has this:
Moreover, the appearance of pS416 and tauC3 are coincident in AD patient samples (see Fig. 5), supporting a putative role of these PTMs in tau proteostasis. Based on these collective findings and in concert with observations from the literature, we propose a model to explain the hierarchy of these tau PTMs (Fig. 6D). In this speculative model, FL tau can either be phosphorylated by MARK2 or CaMKII ...

Assay [2] deals with CHIP. In words: CHIP-tau binding ELISA (tau proteoforms on immobilized CHIP). (In general: ELISA stands for enzyme-linked immunosorbent assay.)
The target of assay [3] is T1, CHIP (C-terminus of Hsc70 interacting protein; STUB1), recombinant human, full-length (human, UniProt Q9UNE7 1-303).
T1 construct: CHIP (STUB1), human, E3 ubiquitin ligase; Used in ELISA, DSF and FP; the FP legends speak of the CHIP TPR domain, the FP methods only of CHIP; also called WT CHIP; source: E. coli BL21DE3, purified (Ni-NTA, TEV cleavage, SEC); not shown: His6, N-terminal, cleaved
T1 sequence (looked up): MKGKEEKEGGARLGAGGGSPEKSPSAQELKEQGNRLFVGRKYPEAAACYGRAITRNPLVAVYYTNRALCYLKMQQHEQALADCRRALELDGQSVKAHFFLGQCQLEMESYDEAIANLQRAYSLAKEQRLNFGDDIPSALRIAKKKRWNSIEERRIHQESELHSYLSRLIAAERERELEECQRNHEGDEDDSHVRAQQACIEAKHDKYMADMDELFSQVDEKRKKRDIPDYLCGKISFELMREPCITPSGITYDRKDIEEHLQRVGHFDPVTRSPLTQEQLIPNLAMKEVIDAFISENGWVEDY
Briefly: fluorescence polarisation; competition: CHIP 1.58 µM + fluorescent tracer 20 nM, peptide competitor in three-fold dilutions, 25 mM HEPES pH 7.4, 50 mM KCl, 0.01% Triton X-100, DMSO; Ki calculated from IC50. The conditions noted are these: both partners purified.

Another assay deals with T2, CHIP D134A (human, UniProt Q9UNE7 1-303, D134A).
T2 construct: CHIP (STUB1) with Asp134 mutated to alanine; also called D134A CHIP
T2 sequence (looked up): T1 sequence (looked up) with D134A
Briefly: differential scanning fluorimetry; 5 µM CHIP, 5x Sypro Orange, varying concentrations of peptide in 25 mM HEPES pH 7.4, 50 mM KCl, 1 mM TCEP, 0.2% CHAPS, 1% DMSO; apparent melting temperature (Tmapp) of CHIP. The conditions noted are these: both partners purified.

The next assay concerns the target T3, CHIP F131A (human, UniProt Q9UNE7 1-303, F131A).
T3 construct: CHIP (STUB1) with Phe131 mutated to alanine
T3 sequence (looked up): T1 sequence (looked up) with F131A
The description is as above. The note with it: both partners purified.

As for “p.tau: full length phosphorylated tau produced in Sf9 insect cells”, the “fold better binding of CHIP than to unmodified FL tau” value in the assay with CHIP [1] is 10 fold. Also, the Kd – broadly, the concentration at which binding is half-saturated – is approximately 500 nM at CHIP [2] (Fig 1C,D, tau proteoform binding to immobilized CHIP (1 µM coated), 3 h RT, technical triplicate, ± SD); 433 nM on CHIP [2] (Fig 1D, replicate 1); 464 nM on CHIP [2] (Fig 1D, replicate 2); 471 nM on CHIP [2] (Fig 1D, replicate 3); 433 nM at CHIP [2] (read-out: transformed Kd, Fig 1D, replicate 1); 464 nM at CHIP [2] (read-out: transformed Kd, Fig 1D, replicate 2). For the same molecule, the equilibrium dissociation constant (Kd) at CHIP [2] (read-out: transformed Kd, Fig 1D, replicate 3) amounted to 471 nM.

B1: tauC3 S416E phosphomimetic 10-mer peptide Ac-SSTGEIDMVD-OH (peptide)
peptide: Ac-SSTGEIDMVD-OH
notes: C-terminus of tauC3 with S416 replaced by glutamic acid; numbers count on: the 2N4R-tau splice isoform; also called tauC3 S416E peptide; pS416 phosphomimetic; source: synthetic peptide
As to B1, the Ki (commonly the dissociation constant of the complex between target and ligand, obtained from inhibition or displacement) in assay [3] is 2410 nM. In addition, the binding result with CHIP D134A and with CHIP F131A was “binds” throughout.
